US9079866B2, “Flap modulators” (JANSSEN PHARMACEUTICA NV, priority 2013, dated 2015)
Counter-ions that a name gives are not always drawn.

What follows are compounds tested against human FLAP (Homo sapiens (Human), UniProt P20292) (assay: FLAP binding assay (HTRF format)). Settings: human FLAP wild type, HTRF format; average of two plates, duplicates.
human FLAP, sequence (P20292 whole entry): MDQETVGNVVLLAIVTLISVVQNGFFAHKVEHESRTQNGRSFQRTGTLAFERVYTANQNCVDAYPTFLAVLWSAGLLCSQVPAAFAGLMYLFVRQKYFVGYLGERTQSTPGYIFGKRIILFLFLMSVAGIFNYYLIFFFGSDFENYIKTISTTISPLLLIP
Summary of the method: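 Read-out is the HTRF ratio. Each reported figure averages two assay plates on which samples were tested in duplicate.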
For C[C@H](NS(=O)(=O)c1ccccc1-c1ccc(-c2cnc(N)nc2)c(F)c1)C(=O)O [Example 308, N-{[4′-(2-Aminopyrimidin-5-yl)-3′-fluorobiphenyl-2-yl]sulfonyl}-L-alanine], the Ki was > 10000 nM. Nc1ncc(-c2ccc(-c3ccccc3S(=O)(=O)C3CCS(=O)(=O)CC3)cc2F)cn1 [Example 316, 5-{2′-[(1,1-Dioxidotetrahydro-2H-thiopyran-4-yl)sulfonyl]-3-fluorobiphenyl-4-yl}pyrimidin-2-amine hydrochloride] was tested, and the Ki was 746 nM. NC(=O)NC1CCN(S(=O)(=O)Cc2ccccc2-c2ccc(-c3cnc(N)cn3)c(F)c2)CC1 [Example 232, 1-[1-({[4′-(5-Aminopyrazin-2-yl)-3′-fluorobiphenyl-2-yl]methyl}sulfonyl)piperidin-4-yl]urea hydrochloride] gave a Ki of 358 nM. CC(C)Sc1ncc(C(F)(F)F)cc1-c1ccc(-c2cnc3[nH]ccc3n2)c(F)c1 [Example 394, 2-(2-Fluoro-4-{2-[(1-methylethyl)sulfanyl]-5-(trifluoromethyl)pyridin-3-yl}phenyl)-5H-pyrrolo[2,3-b]pyrazine] was tested, and the Ki was > 10000 nM.

Same assay, conditions: read-out: FLAP Binding wild type HTRF Ki
Nc1ncc(-c2ccc(-c3cccnc3S(=O)(=O)C3CCNC3)cc2F)cn1 (centres unmarked) [Example 804, 5-(2-Fluoro-4-(2-(pyrrolidin-3-ylsulfonyl)pyridin-3-yl)phenyl)pyrimidin-2-amine formic acid salt] was tested, and the Ki was 636 nM. Nc1cnc(-c2ccc(-c3ccccc3CS(=O)(=O)N3CCNC(=O)C3)cc2F)cn1 [Example 223, 4-({[4′-(5-Aminopyrazin-2-yl)-3′-fluorobiphenyl-2-yl]methyl}sulfonyl)piperazin-2-one formic acid salt] gave a Ki of 663 nM.

Same assay, conditions: wild type FLAP, HTRF format
Work on Nc1cncc(S(=O)(=O)c2ccccc2-c2ccc(-c3cnc(N)nc3)c(F)c2)n1 [Example 725, 5-{2′-[(6-Aminopyrazin-2-yl)sulfonyl]-3-fluorobiphenyl-4-yl}pyrimidin-2-amine] yielded a Ki of 1300 nM. Work on Nc1cnc(-c2ccc(-c3ccccc3S(=O)(=O)c3cc(N)ncn3)cc2F)cn1 [Example 726, 6-{[4′-(5-Aminopyrazin-2-yl)-3′-fluorobiphenyl-2-yl]sulfonyl}pyrimidin-4-amine] yielded a Ki of 904 nM. In the case of Nc1ccc(-c2ccc(-c3ccccc3S(N)(=O)=O)cc2F)cn1 [Example 662, 4′-(6-Aminopyridin-3-yl)-3′-fluoro-[1,1′-biphenyl]-2-sulfonamide trifluoroacetate], the Ki is reported as ~1220 nM. Nc1cnc(-c2ccc(-c3ccccc3S(N)(=O)=O)cc2)cn1 [Example 594, 4′-(5-Aminopyrazin-2-yl)biphenyl-2-sulfonamide] was tested, and the Ki was > 10000 nM. With Fc1cc(-c2cccnc2OCC(F)(F)F)ccc1-c1cnc2[nH]ccc2n1 [Example 397, 2-{2-Fluoro-4-[2-(2,2,2-trifluoroethoxy)pyridin-3-yl]phenyl}-5H-pyrrolo[2,3-b]pyrazine] the Ki was > 10000 nM. Nc1ncc(-c2ccc(-c3ccccc3S(=O)(=O)CCNC(=O)c3ccccc3)cc2F)cn1 [Example 716, N-(2-{[4′-(2-Aminopyrimidin-5-yl)-3′-fluorobiphenyl-2-yl]sulfonyl}ethyl)benzamide] was tested, and the Ki was > 10000 nM. Nc1cnc(S(=O)(=O)c2ccccc2-c2ccc(-c3cnc(N)nc3)c(F)c2)cn1 [Example 723, 5-{2′-[(5-Aminopyrazin-2-yl)sulfonyl]-3-fluorobiphenyl-4-yl}pyrimidin-2-amine] was tested, and the Ki was > 10000 nM. For Nc1ncc(-c2ccc(-c3ccccc3S(=O)(=O)c3ccnc(N)n3)cc2F)cn1 [Example 724, 4-{[4′-(2-Aminopyrimidin-5-yl)-3′-fluorobiphenyl-2-yl]sulfonyl}pyrimidin-2-amine], the Ki was > 10000 nM. For Nc1cnc(-c2ccc(-c3ccccc3C(=O)N3CCNCC3)cc2F)cn1 [Example 506, 5-[3-Fluoro-2′-(piperazin-1-ylcarbonyl)biphenyl-4-yl]pyrazin-2-amine], the Ki was > 10000 nM. Nc1ncc(-c2ccc(-c3cccnc3C(=O)N3CCOCC3)cc2F)cn1 [Example 782, 5-{2-Fluoro-4-[2-(morpholin-4-ylcarbonyl)pyridin-3-yl]phenyl}pyrimidin-2-amine] was tested, and the Ki was > 10000 nM. C[C@@H](CO)NC(=O)c1ccccc1-c1ccc(-c2cnc(N)nc2)c(F)c1 [Example 517, 4′-(2-Aminopyrimidin-5-yl)-3′-fluoro-N-[(1S)-2-hydroxy-1-methylethyl]biphenyl-2-carboxamide] was tested, and the Ki was > 10000 nM. In the case of Nc1ncc(-c2ccc(-c3ccccc3C(=O)N3CCNC(=O)C3)cc2F)cn1 [Example 520, 4-{[4′-(2-Aminopyrimidin-5-yl)-3′-fluorobiphenyl-2-yl]carbonyl}piperazin-2-one], the Ki is reported as > 10000 nM. Nc1ccnc(S(=O)(=O)c2ccccc2-c2ccc(-c3cnc(N)nc3)c(F)c2)n1 [Example 722, 5-{2′-[(4-Aminopyrimidin-2-yl)sulfonyl]-3-fluorobiphenyl-4-yl}pyrimidin-2-amine] was tested, and the Ki was > 10000 nM. Work on Nc1cnc(-c2ccc(-c3ccccc3S(=O)(=O)N3CCOCC3)cc2)cn1 [Example 573, 5-[2′-(Morpholin-4-ylsulfonyl)biphenyl-4-yl]pyrazin-2-amine] yielded a Ki of 114 nM. In the case of NCC1(S(=O)(=O)c2ccccc2-c2ccc(-c3cnc(N)nc3)c(F)c2)CCCC1 [Example 740, 5-(2′-{[1-(Aminomethyl)cyclopentyl]sulfonyl}-3-fluorobiphenyl-4-yl)pyrimidin-2-amine], the Ki is reported as > 10000 nM. In the case of Nc1ncc(-c2ccc(-c3ccccc3C(=O)N3CC(O)C3)cc2F)cn1 [Example 791, [2-[4-(2-Aminopyrimidin-5-yl)-3-fluoro-phenyl]phenyl]-(3-hydroxyazetidin-1-yl)methanone], the Ki is reported as > 10000 nM. For CC(C)(CN)S(=O)(=O)c1ccccc1-c1ccc(-c2cnc(N)nc2)c(F)c1 [Example 734, 5-{2′-[(2-Amino-1,1-dimethylethyl)sulfonyl]-3-fluorobiphenyl-4-yl}pyrimidin-2-amine], the Ki was > 10000 nM. With Nc1ncc(-c2ccc(-c3cccnc3OCCO)cc2F)cn1 [Example 649, 2-({3-[4-(2-Aminopyrimidin-5-yl)-3-fluorophenyl]pyridin-2-yl}oxy)ethanol] the Ki was > 10000 nM.

The compounds below were run on leukotriene pathway in human whole blood (LTB4 levels) (assay: Human whole blood assay (A23187-stimulated LTB4)). Settings: Homo sapiens, human whole blood diluted 1:1, A23187-stimulated; read-out: LTB4 IC50 1:1.
Assay type: cell-based
Procedure: The ability of the compounds of the present invention to treat a FLAP-mediated disease and/or disorder, or associated symptoms or complications thereof, was determined using the following procedures. Binding assay data represent the average value obtained from two different assay plates, with samples run in duplicate on each plate. Human whole blood assay data represent a single replicate on an assay plate using whole blood from at least one healthy donor.
An in vitro cellular assay was performed using human whole blood collected in heparin-containing tubes, which was used to test the ability of compounds to modulate the leukotriene pathway in human whole blood. The blood was diluted 1:1 in RPMI medium, pre-incubated for 15 min at 37° Celsius with test compounds at various concentrations, and then stimulated with calcium ionophore, A23187 (7 μg/mL), for 30 min at 37° Celsius. The samples were then centrifuged and plasma was removed. The plasma was diluted in assay buffer and LTB4 levels were measured using a commercial kit (Enzo Life Sciences). The concentration of each compound that was required for half-maximal inhibition (modulation) of recombinant enzyme activity (IC50) was calculated by a 4-parameter equation using the program GraphPad Prism (GraphPad software).
In the case of Nc1cnc(-c2ccc(-c3ccccc3Oc3ncccn3)cc2F)cn1 [Example 526, 5-[3-Fluoro-2′-(pyrimidin-2-yloxy)biphenyl-4-yl]pyrazin-2-amine], the IC50 is reported as 19 nM. Compound N#Cc1nc(-c2ccc(-c3ccccc3S(=O)(=O)N3CCNC(=O)C3)cc2F)cnc1N [Example 414, 3-Amino-6-{3-fluoro-2′-[(3-oxopiperazin-1-yl)sulfonyl]biphenyl-4-yl}pyrazine-2-carbonitrile] has an IC50 of 120 nM. In the case of Nc1cnc(-c2ccc(-c3ccccc3S(N)(=O)=O)c(F)c2F)cn1 [Example 464, 4′-(5-Aminopyrazin-2-yl)-2′,3′-difluorobiphenyl-2-sulfonamide], the IC50 is reported as > 10000 nM. With Nc1cnc(-c2ccc(-c3ccc(C(F)(F)F)cc3Oc3ncccn3)cc2F)cn1 [Example 551, 5-[3-Fluoro-2′-(pyrimidin-2-yloxy)-4′-(trifluoromethyl)biphenyl-4-yl]pyrazin-2-amine] the IC50 was 21 nM.

Same assay, conditions: Homo sapiens, human whole blood diluted 1:1 in RPMI, A23187-stimulated LTB4; read-out: LTB4 IC50 1:1
For O=S1(=O)CCN(S(=O)(=O)c2ccccc2-c2ccc(-c3cnc4[nH]ccc4n3)c(F)c2)CC1 [Example 382, 2-{2′-[(1,1-Dioxidothiomorpholin-4-yl)sulfonyl]-3-fluorobiphenyl-4-yl}-5H-pyrrolo[2,3-b]pyrazine], the IC50 was 11 nM. Compound Nc1ncc(-c2ccc(-c3ccccc3S(=O)(=O)N3CCCC3)cc2F)cn1 [Example 298, 5-[3-Fluoro-2′-(pyrrolidin-1-ylsulfonyl)biphenyl-4-yl]pyrimidin-2-amine trifluoroacetic acid salt] has an IC50 of 1170 nM. Nc1cnc(-c2ccc(-c3ccccc3S(=O)(=O)N3CCN(c4ncccn4)CC3)cc2F)cn1 [Example 177, 5-{3-Fluoro-2′-[(4-pyrimidin-2-ylpiperazin-1-yl)sulfonyl]biphenyl-4-yl}pyrazin-2-amine] gave an IC50 of 302 nM. Work on Nc1cnc(-c2ccc(-c3ccccc3S(=O)(=O)N3CC[C@H](N)C3)cc2F)cn1 [Example 93, (S)-5-(2′-((3-Aminopyrrolidin-1-yl)sulfonyl)-3-fluoro-[1,1′-biphenyl]-4-yl)pyrazin-2-amine] yielded an IC50 of 128 nM. In the case of Nc1cnc(-c2ccc(-c3ccccc3S(=O)(=O)N[C@H]3c4ccccc4C[C@H]3O)cc2F)cn1 [Example 160, 4′-(5-Aminopyrazin-2-yl)-3′-fluoro-N-((1S,2R)-2-hydroxy-2,3-dihydro-1H-inden-1-yl)-[1,1′-biphenyl]-2-sulfonamide], the IC50 is reported as 5 nM. In the case of N#CC1CCCN(S(=O)(=O)c2ccccc2-c2ccc(-c3cnc(N)cn3)c(F)c2)C1 (racemic) [Example 63, racemic 1-{[4′-(5-Aminopyrazin-2-yl)-3′-fluorobiphenyl-2-yl]sulfonyl}piperidine-3-carbonitrile], the IC50 is reported as 28 nM.

Same assay, conditions: Homo sapiens, read-out: LTB4 IC50 1:1
Work on C[Si](C)(C)CCOCS(=O)(=O)c1ccccc1-c1ccc(-c2cnc(N)nc2)c(F)c1 [Example 338, 5-[3-Fluoro-2′-({[2-(trimethylsilyl)ethoxy]methyl}sulfonyl)biphenyl-4-yl]pyrimidin-2-amine formate salt] yielded an IC50 of 1090 nM.
